This passage reports EC50 and IC50 results from patent US20260226073A1 (AURIGENE ONCOLOGY LIMITED, priority 2023, published 2026).

Assay [1] relates to human PBMCs stimulated with anti-CD3/CD28 Dynabeads. Nature of the assay: Human PBMC cytokine release assay (IL-2 by ELISA). The class given is cell-based. As to conditions: Dynabeads CD3/CD28 48 hours, IL-2 ELISA, fold change over baseline, read-out: EC50 (human PBMC cytokine release, group). As for the experimental part:
Peripheral blood mononuclear cells (PBMC) were isolated from healthy human donor using Histopaque (Sigma). The Cbl-inhibitor was added to 1×10^5 cells per well and the plate was incubated for 30 minutes at 37° C. in 5% CO2 at different concentrations with a final DMSO concentration of <0.5%. Following incubation with the Cbl-b inhibitor, human PBMCs were stimulated with Dynabeads™ Human T-Activator CD3/CD28 (Thermo Fisher Scientific) for 48 hours. Cell free supernatant were collected after end of incubation and were analyzed for cytokine secretion, including IL-2 by ELISA (R&D Systems). Readouts were reported as fold change over baseline. Here, baseline was the measurement obtained from human PBMCs stimulated with Dynabeads™ Human T-Activator CD3/CD28, where the cells were not incubated with a Cbl-b inhibitor.
Background: In an ELISA, binding on a coated surface is turned into a signal by an enzyme label.

In assay [2] the target is T1, human recombinant CBL-b (human Biotin CBL-b recombinant protein a.a. 39-426) (Homo sapiens, UniProt Q13191).
T1 construct: human Biotin CBL-b recombinant protein a.a; 39-426; Biotin (biotinylated); made in house
T1 sequence (Q13191 39-426): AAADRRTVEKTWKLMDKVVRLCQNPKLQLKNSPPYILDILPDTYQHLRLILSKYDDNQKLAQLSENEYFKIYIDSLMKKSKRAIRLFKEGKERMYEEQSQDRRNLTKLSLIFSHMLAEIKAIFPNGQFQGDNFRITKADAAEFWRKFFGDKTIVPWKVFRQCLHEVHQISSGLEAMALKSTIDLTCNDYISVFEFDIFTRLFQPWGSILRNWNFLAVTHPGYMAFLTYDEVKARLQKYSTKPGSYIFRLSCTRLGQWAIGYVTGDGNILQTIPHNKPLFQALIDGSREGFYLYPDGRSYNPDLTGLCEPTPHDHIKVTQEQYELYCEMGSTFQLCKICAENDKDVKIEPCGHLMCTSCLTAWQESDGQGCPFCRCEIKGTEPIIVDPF
Nature of the assay: Biochemical assay for CBL-b inhibition (ligand displacement TR-FRET). It is filed as binding. As to conditions: 50 nM CBL-b, 0.3 μM Bodipy FL-Probe, read-out: IC50 (CBL-b inhibition, group). Summed up:
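Biotinylated CBL-b (a.a. 39-426, 50 nM final) pre-incubated with compound 60 min at RT in HEPES/NaCl/Triton/BSA/TCEP buffer, then Bodipy FL probe (0.3 μM final) 60 min, then terbium-streptavidin 60 min. TR-FRET read at 665/615 nm; IC50 and % max inhibition from sigmoidal fits.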
In general terms: Time-resolved FRET reads energy transfer from a long-lived donor to a nearby acceptor.

The subject of assay [3] is NFAT signaling pathway in Jurkat NFAT reporter cells. Kind of assay: Jurkat NFAT reporter assay. The class given is cell-based. The conditions noted are these: Homo sapiens, 30 min with compound, then soluble anti-human CD3/CD28 antibody for 6 hours, luciferase readout, read-out: EC50 (Group). Summed up: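 Jurkat cells bearing an NFAT-RE-driven luciferase reporter (1×10^5 per well) preincubated with Cbl-b inhibitor for 30 min, then stimulated 6 h with soluble anti-CD3/CD28. Luminescence read with Bio-Glo; values are fold change over anti-CD3/CD28-stimulated cells without inhibitor.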
A general note: In a reporter assay the amount or activity of a reporter protein is the signal.

One may read the IC50 as the midpoint of a concentration-inhibition curve. Regarding `C[C@H]1CCCN(Cc2cc(N3Cc4ccc(C5(Cc6nncn6C)COC5)cc4C3=O)cc(C(F)(F)F)c2)C1` [Compound 1, (S)-6-(3-((4-Methyl-4H-1,2,4-triazol-3-yl)methyl)oxetan-3-yl)-2-(3-((3-methylpiperidin-1-yl)methyl)-5-(trifluoromethyl)phenyl)isoindolin-1-one], the results for the EC50 in assay [1] and in assay [3] were less than 5000 nM and less than 300 nM, respectively. Moreover, the IC50 in assay [2] is 80 to 300 nM.
For the compound `C[C@H]1CCCN(Cc2cc(N3Cc4ccc(C5(Cc6nncn6C)COC5)cc4C3=O)nc(C(F)(F)F)c2)C1` [Compound 2], the figures for the EC50 in assay [1] and in assay [3] were less than 5000 nM and less than 300 nM, respectively. For the same compound, the IC50 in assay [2] is less than 80 nM.
Taken in the same sequence, the figures for `Cc1cc(CN2CCC[C@H](C)C2)cc(N2Cc3ccc(C4(Cc5nncn5C)COC4)cc3C2=O)c1` [Compound 4, (S)-6-(3-((4-Methyl-4H-1,2,4-triazol-3-yl)methyl)oxetan-3-yl)-2-(3-methyl-5-((3-methylpiperidin-1-yl)methyl)phenyl)isoindolin-1-one] were less than 5000 nM, less than 300 nM and less than 80 nM.
The like results for `C[C@H]1CCCN(Cc2cc(Cl)cc(N3Cc4ccc(C5(Cc6nncn6C)COC5)cc4C3=O)c2)C1` [Compound 6, (S)-2-(3-Chloro-5-((3-methylpiperidin-1-yl)methyl)phenyl)-6-(3-((4-methyl-4H-1,2,4-triazol-3-yl)methyl)oxetan-3-yl)isoindolin-1-one] were, in that order, less than 5000 nM, less than 300 nM and less than 80 nM.
The like results for `CCc1cc(CN2CCC[C@H](C)C2)cc(N2Cc3ccc(C4(Cc5nncn5C)COC4)cc3C2=O)c1` [Compound 11, (S)-2-(3-Ethyl-5-((3-methylpiperidin-1-yl)methyl)phenyl)-6-(3-((4-methyl-4H-1,2,4-triazol-3-yl)methyl)oxetan-3-yl)isoindolin-1-one] were, in that order, less than 5000 nM, 300 to 1000 nM and 80 to 300 nM.
Regarding `Cc1cc(C(C)N2CCC[C@H](C)C2)cc(N2Cc3ccc(C4(Cc5nncn5C)COC4)cc3C2=O)c1` (stereo partly drawn) [Compound 12, 6-(3-((4-Methyl-4H-1,2,4-triazol-3-yl)methyl)oxetan-3-yl)-2-(3-methyl-5-(1-((S)-3-methylpiperidin-1-yl)ethyl)phenyl)isoindolin-1-one], the EC50 in assay [1] was less than 5000 nM; in assay [3], 300 to 1000 nM. For the same compound, in assay [2], the IC50 was less than 80 nM.
`Cn1cnnc1CC1(c2ccc3c(c2)C(=O)N(c2cc(CNCCC(F)(F)F)cc(C(F)(F)F)n2)C3)COC1` [Compound 25, 6-(3-((4-Methyl-4H-1,2,4-triazol-3-yl)methyl)oxetan-3-yl)-2-(6-(trifluoro-methyl)-4-(((3,3,3-trifluoropropyl)amino)methyl)pyridin-2-yl)isoindolin-1-one]: the values for the EC50 in assay [1] and in assay [3] were less than 5000 nM and 300 to 1000 nM, respectively. Further, the half-inhibitory concentration (IC50) in assay [2] is less than 80 nM.
In the case of `Cn1cnnc1CC1(c2ccc3c(c2)C(=O)N(c2cc(CN4CC5CCCC5C4)cc(C(F)(F)F)n2)C3)COC1` (stereo not shown) [Compound 35, 2-(4-((Hexahydrocyclopenta[c]pyrrol-2(1H)-yl)methyl)-6-(trifluoromethyl)pyri-din-2-yl)-6-(3-((4-methyl-4H-1,2,4-triazol-3-yl)methyl)oxetan-3-yl)isoindolin-1-one], the EC50 in assay [1] was less than 5000 nM; in assay [3], 300 to 1000 nM. In addition, the concentration for half-maximal inhibition (IC50) in assay [2] was in the range of 80 to 300 nM.
With `C[C@@H]1C[C@H](C)CN(Cc2cc(N3Cc4ccc(C5(Cc6nncn6C)COC5)cc4C3=O)nc(C(F)(F)F)c2)C1` [Compound 39, 2-(4-(((3S,5R)-3,5-Dimethylpiperidin-1-yl)methyl)-6-(trifluoromethyl)pyridin-2-yl)-6-(3-((4-methyl-4H-1,2,4-triazol-3-yl)methyl)oxetan-3-yl)isoindolin-1-one], the EC50 was less than 5000 nM in assay [1] and less than 300 nM in assay [3]. Moreover, in assay [2], the concentration for half-maximal inhibition (IC50) was less than 80 nM.
For the compound `Cc1cc(CNCC2(O)CCCC2)cc(N2Cc3ccc(-c4ccc(F)cc4-c4nncn4C)cc3C2=O)n1` [Compound 319, 6-(4-Fluoro-2-(4-methyl-4H-1,2,4-triazol-3-yl)phenyl)-2-(4-((((1-hydroxy-cyclopentyl)methyl)amino)methyl)-6-methylpyridin-2-yl)isoindolin-1-one], in assay [2], the 50% inhibitory concentration (IC50) is less than 80 nM. In addition, the EC50 in assay [3] is less than 300 nM.
In the case of `Cc1cc(CNCC2CC2)cc(N2Cc3ccc(-c4ccc(F)cc4-c4nncn4C4CC4)cc3C2=O)n1` [Compound 320, 6-(2-(4-Cyclopropyl-4H-1,2,4-triazol-3-yl)-4-fluorophenyl)-2-(4-(((cyclopropyl-methyl)amino)methyl)-6-methylpyridin-2-yl)isoindolin-1-one], the 50% inhibitory concentration (IC50) in assay [2] was less than 80 nM. Besides, in assay [3], the EC50 was 300 to 1000 nM.
In the case of `CCCNCc1cc(C)nc(N2Cc3ccc(-c4ccc(F)cc4-c4nncn4C)cc3C2=O)c1` [Compound 323, 6-(4-Fluoro-2-(4-methyl-4H-1,2,4-triazol-3-yl)phenyl)-2-(6-methyl-4-((propyl-amino)methyl)pyridin-2-yl)isoindolin-1-one], the concentration for half-maximal inhibition (IC50) in assay [2] is less than 80 nM. Further, the EC50 in assay [3] is less than 300 nM.
The like results for `Cc1cc(CNCC2CCO2)cc(N2Cc3ccc(-c4ccc(F)cc4-c4nncn4C)cc3C2=O)n1` (stereo not shown) [Compound 325, 6-(4-Fluoro-2-(4-methyl-4H-1,2,4-triazol-3-yl)phenyl)-2-(6-methyl-4-(((oxetan-2-ylmethyl)amino)methyl)pyridin-2-yl)isoindolin-1-one] were, in that order, less than 80 nM and 1000 to 10000 nM.
Consider `Cc1cc(CNCCC(F)(F)F)cc(N2Cc3ccc(-c4ccc(F)cc4-c4nncn4C)cc3C2=O)n1` [Compound 326, 6-(4-Fluoro-2-(4-methyl-4H-1,2,4-triazol-3-yl)phenyl)-2-(6-methyl-4-(((3,3,3-trifluoropropyl)amino)methyl)pyridin-2-yl)isoindolin-1-one], for which the IC50 in assay [2] was less than 80 nM. Moreover, in assay [3], the EC50 was 1000 to 10000 nM.
With `Cc1cc(CNCCCC(F)(F)F)cc(N2Cc3ccc(-c4ccc(F)cc4-c4nncn4C)cc3C2=O)n1` [Compound 328, 6-(4-Fluoro-2-(4-methyl-4H-1,2,4-triazol-3-yl)phenyl)-2-(6-methyl-4-(((4,4,4-trifluorobutyl)amino)methyl)pyridin-2-yl)isoindolin-1-one], the half-maximal inhibitory concentration (IC50) in assay [2] was less than 80 nM. In addition, the EC50 in assay [3] lay in the range of 300 to 1000 nM.
As to `Cc1cc(CNCC2CCCC2)cc(N2Cc3ccc(-c4ccc(F)cc4-c4nncn4C)cc3C2=O)n1` [Compound 329, 2-(4-(((Cyclopentylmethyl)amino)methyl)-6-methylpyridin-2-yl)-6-(4-fluoro-2-(4-methyl-4H-1,2,4-triazol-3-yl)phenyl)isoindolin-1-one], in assay [2], the half-inhibitory concentration (IC50) is less than 80 nM. In addition, the EC50 in assay [3] is less than 300 nM.
Taken in the same sequence, the figures for `Cc1nc(N2Cc3ccc(-c4ccc(F)cc4-c4nncn4C)cc3C2=O)cc(CNCC2CC2)c1C(F)(F)F` [Compound 337, 2-(4-(((Cyclopropylmethyl)amino)methyl)-6-methyl-5-(trifluoromethyl)-pyridin-2-yl)-6-(4-fluoro-2-(4-methyl-4H-1,2,4-triazol-3-yl)phenyl)isoindolin-1-one] were less than 80 nM and 1000 to 10000 nM.
